Measurements as given in ChEMBL document CHEMBL1150734, “Marine soft corals of the genus Pseudopterogorgia: a resource for novel anti-inflammatory diterpenoids” (J Nat Prod, 1987).
≈ marks a conversion by molar mass, not a printed value.

Legend:
[1] = system: Mus musculus; assay: Antiinflammatory activity in mouse assessed as reduction PMA-induced ear edema at 50 ug/ear administered relative to control; assay type: functional; set-up: scale not given: the % may be the effect or the level left; settings: at 50 µg/ear
[2] = Inhibition of cell division of fertilized sea urchin egg; settings: echinoidea
[3] = Inhibition of tubulin polymerization
[4] = Inhibition of nuclear division of fertilized sea urchin egg; settings: echinoidea
[5] = system: Mus musculus; assay: Antiinflammatory activity in ip dosed mouse assessed as reduction PMA-induced ear edema; assay type: functional
[6] = system: Mus musculus; assay: Antiinflammatory activity in mouse assessed as reduction PMA-induced ear edema; assay type: functional
[7] = system: Mus musculus; assay: Antiinflammatory activity in ip dosed mouse assessed as inhibition of writhing; assay type: functional

Row | SMILES | Activity [1] [%] | ED50 [5] [mg/kg] | ED50 [7] [mg/kg] | other results
1 | CC(=O)O[C@H]1[C@H](O)[C@H](Oc2c(O)c(C)cc3c2[C@@H](C)CC[C@@H]3[C@@H](C)CCC=C(C)C)OC[C@H]1O | 75 | – | – | –
2 | CC(=O)O[C@@H]1CO[C@@H](Oc2c(O)c(C)cc3c2[C@@H](C)CC[C@@H]3[C@@H](C)CCC=C(C)C)[C@@H](O)[C@@H]1O | 75 | – | – | –
3 | C=C(C)[C@H]1C2=CC(C(=O)OC)=C(C[C@H](C(C)C)[C@H]3O[C@H]3C3=C[C@H]1OC3=O)O2 [PSEUDOPTEROLIDE] | 83 | – | – | Activity [2]: Non-toxic; ED50 [3]: 8 µg/mL (≈ 21.5 µM); Activity [4]: Non-toxic
4 | CC(C)=C[C@H]1C[C@H](C)[C@H]2CC[C@H](C)c3c(O[C@@H]4OC[C@@H](O)[C@H](O)[C@H]4O)c(O)c(C)c1c32 [PSEUDOPTEROSIN A] | 75 | 10 | 4 | ED50 [6]: 8.3 µg
5 | CC(=O)O[C@H]1[C@H](Oc2c(O)c(C)c3c4c2[C@@H](C)CC[C@@H]4[C@@H](C)C[C@@H]3C=C(C)C)OC[C@@H](O)[C@@H]1O [PSEUDOPTEROSIN B] | 75 | 10 | 4 | –
6 | CC(=O)O[C@@H]1[C@@H](O)[C@H](Oc2c(O)c(C)c3c4c2[C@@H](C)CC[C@@H]4[C@@H](C)C[C@@H]3C=C(C)C)OC[C@H]1O [PSEUDOPTEROSIN C] | 75 | 10 | 4 | –
7 | CC(=O)O[C@@H]1CO[C@@H](Oc2c(O)c(C)c3c4c2[C@@H](C)CC[C@@H]4[C@@H](C)C[C@@H]3C=C(C)C)[C@H](O)[C@H]1O [PSEUDOPTEROSIN D] | 75 | 10 | 4 | –
8 | CC(C)=CCC[C@H](C)[C@H]1CC[C@H](C)c2c1cc(C)c(O)c2O[C@@H]1OC[C@@H](O)[C@@H](O)[C@@H]1O [SECO-PSEUDOPTEROSIN A] | 75 | – | – | –
9 | CC(=O)O[C@@H]1[C@H](Oc2c(O)c(C)cc3c2[C@@H](C)CC[C@@H]3[C@@H](C)CCC=C(C)C)OC[C@@H](O)[C@H]1O [SECO-PSEUDOPTEROSIN B] | 75 | – | – | –
